pIC50: −log10 of the molar value.

The subject of one data set is HMEC-GFP cells. In words: Scratch wound closure assay, HMEC-GFP. Format: cell-based, human. The conditions noted are these: Homo sapiens; wound closure after 24 h, 10% FCS, tested 3.125 μM to 100 μM. The text has this:
In order to adapt the endothelial scratch wounding assay to the constraints of high throughput screening, we decided to use an endothelial cell line rather than primary cultures for the sake of reproducibility. Since angiogenesis is triggered by capillary endothelial cells, we selected the HMEC-1 cell line which consists of human dermal microvascular endothelial cells stably expressing SV40 […] antigen. We infected this cell line with GFP-encoding retroviral particles and selected one clone (thereafter named HMEC-GFP) that presented a high level of fluorescence and a strong proliferation rate (doubling time in the presence of serum: 22 h). We controlled that GFP expression was stable over at least 50 passages and that these cells still expressed endothelial markers such as VE-cadherin and CD31. In a standard assay, HMEC-GFP cells were grown until confluence in 96-well plates in the presence of serum, scratched with the multi-tip dispenser of the HTS automat, gently rinsed twice to eliminate detached cells and cell debris that could liberate inflammatory and potentially angiogenic cytokines, and incubated for 24 h in the presence of serum and the compounds to be tested. Each well was photographed at time 0 h (after wounding) and 24 h under a motorized epifluorescence microscope and the digitized images were analyzed using Image J to determine the percentage of wound closure (Figure 1A, 1B). Under our standard conditions, the closure rate was 72 ± 4% in the positive controls and 27 ± 4.% in the negative controls.
(§1) Confluent cell monolayers were wounded with a plastic pipet tip, washed gently with phosphate buffer saline (PBS) and treated with complete media containing molecules, as indicated. Cells were placed at 37°C into the incubator and photographed at indicated times. Quantitation of closure of the monolayer was performed using the NIH Image J program (http://rsbweb.nih.gov/ij/). Results are expressed as percentage of wound closure at t = 24 h as compared to the initial wound at t = 0 h.

A further data set deals with 3T3-GFP cells. The data set is described as follows: Scratch wound closure assay, 3T3-GFP. The conditions noted are these: wound closure after 24 h, 10% FCS, tested 3.125 μM to 100 μM. Format: cell-based.
Description: Using this assay, we screened the academic library of the University of Grenoble, which is composed of 1360 original molecules. Setting the threshold of significant responses at 75% of the maximal inhibition, we identified 80 inhibitory molecules. At this stage, we reasoned that molecules that would affect the cytoskeleton dynamics or the adhesion properties of any cell type would be positive in this assay but would not represent good candidates for further development. We thus decided to perform a secondary counterscreen of the first 80 selected compounds on GFP-expressing 3T3 fibroblasts (3T3-GFP) using the same scratch assay. We then focused our interest on the 5 molecules that inhibited more strongly HMEC-GFP than 3T3-GFP wound healing. […] We synthesized a series of 30 analogs and tested them at various concentrations both on HMEC-GFP and 3T3-GFP cells. […] Dansyl and naphthalimide aromatic groups, found in COB223 and COB227 respectively, appeared very efficient. The presence of the diaminomethyl group on dansyl is critical for the activity of COB223 as shown by the lower efficiency of COB235 (IC50 is 8 times higher than that of COB223). COB223 and COB227 contain a tert-butyloxycarbonyl function (BOC group) as a second hydrophobic group. Replacement of BOC by an amino group decreased the efficiency and the specificity (compare 05-102-L-B09 vs 05-06-L-D03, or COB227 vs COB228).
as §1

For another data set, the system named is LLC/2 tumor. In words: Mouse LLC/2 tumor model. Format: in vivo. The conditions noted are these: mouse, in vivo. On the procedure:
We chose this model because of its rapid growth in syngenic mice and its strong dependence on angiogenesis. LLC/2 cells (10^6 in 50 μL medium) were subcutaneously injected into the right flank of […] mice. Seven days after tumor inoculation, mice were given an intraperitoneal (i.p.) injection of either solvent (1.7% DMSO) or COB223 every other day. Tumor size was measured with calipers, and the volume was calculated according to the formula (L*w^2)/2 where L and […] stand for length and width respectively. All mice were killed 21 days after tumor grafting.
Tumors collected after animal sacrifice were split into two parts and fixed either in 4% paraformaldehyde (v/v) or in formalin fixative for 24 h at 4°C and embedded in paraffin and then cut into 7 μm sections. Sections were stained using specific antibodies and the avidin–biotin immunoperoxidase detection method. Endogenous peroxidase activity was quenched by pretreatment with 3% (v/v) hydrogen peroxide in methanol for 20 min. For endothelial immunohistochemistry detection, CD31 antibody (MEC13.3, BD Pharmingen) was incubated for 2 h at room temperature. The tissue sections were subsequently washed three times with PBS and incubated with biotinylated rabbit anti-rat IgG (1:250 dilution in blocking solution; Sigma-Aldrich, Saint-Quentin Fallavier, France) for 1 h at room temperature. After three PBS washes, the slides were incubated with an avidin: biotin complex (Vectastain ABC kit; Vector Laboratories, Burlingame, CA) for 45 minutes. After a final PBS wash, the immunoreactive proteins were visualized after the addition of 3,3′-diaminobenzidine (Dako, Trappes, France) for 2 min and then counterstained with hematoxylin. Control sections were treated without primary antibody.

Data set [1] deals with HUVEC cells. The data set is described as follows: Scratch assay on HUVEC with or without mitomycin C. In kind it is cell-based, human. The conditions noted are these: HUVEC pretreated 24 h with 2 μg/mL mitomycin C. The method, then:
Confluent cell monolayers were wounded with a plastic pipet tip, washed gently with phosphate buffer saline (PBS) and treated with complete media containing molecules, as indicated. Cells were placed at 37°C into the incubator and photographed at indicated times. Quantitation of closure of the monolayer was performed using the NIH Image J program (http://rsbweb.nih.gov/ij/). Results are expressed as percentage of wound closure at t = 24 h as compared to the initial wound at t = 0 h. […]
www.impactjournals.com/oncotarget/ Oncotarget, Supplementary Materials 2015 […]
Figure S1: Effect of COB223 on endothelial cell migration. (A) Scratch assay: Confluent HUVEC cells were pretreated for 24 h without (CTL) or with 2 μg/mL of mitomycin C before a wound was made in the cell monolayer. After wounding, cells were incubated at 37°C in the absence or the presence of 25 μM COB223. Wound closure was measured after 24 h and 48 h of incubation as described in Material and Methods. […]
(B) Boyden chamber assay: The technique is described in Material and Methods. We measured the passage of fluorescently labeled HUVEC cells through a 3 μm-porous membrane in response to fetal calf serum used as a chemo-attractant. […] The Figure represents the mean fluorescence ± SD of duplicate determinations after 24 h or 48h of incubation from two independent experiments. […]

For data set [2], the system named is HUVEC cells. In words: 3H-thymidine incorporation, HUVEC. In kind it is cell-based, human. Particulars: mitomycin C-treated cells vs untreated, data not shown. The method, then:
Cells were treated with molecules in complete medium. After 22 h, 1 μCi per well H^3 thymidine was added for 2 hours. Cells are then fixed by 10% trichloroacetic acid and harvested with 0.2N NaOH, 1% SDS. Radioactivity was measured in a beta counter.
A general note: Uptake of a labelled nucleoside into DNA is a usual measure of proliferation.

Another data set is described as follows: Water solubility. In kind it is physicochemical.

In general, pIC50 refers to the negative decadic logarithm of the IC50, by convention in mol/L. For `CC(C)(C)OC(=O)NCCCN1CCN(CCCN2C(=O)c3cccc4cccc(c34)C2=O)CC1` [COB227, N-{3-[4-(3-tert-Butoxycarbonylaminopropyl)piperazin-1-yl]propyl}-1,8-naphthalimide], the pIC50 in the data set on HMEC-GFP cells is 4.74; in the data set on 3T3-GFP cells, 3.60. In addition, the “effect on in vivo LLC/2 tumor growth” value with LLC/2 tumor is recorded as “no inhibition”.

As for `CO[C@@]12[C@H](COC(N)=O)C3=C(C(=O)C(C)=C(N)C3=O)N1C[C@@H]1N[C@@H]12` [mitomycin C, reference compound], the wound healing result with HUVEC cells [1] is “slowed down”. Further, the 3H-thymidine incorporation entry with HUVEC cells [2] was “complete inhibition”.

`CN(C)c1cccc2c(S(=O)(=O)NCCOCCOCCNS(=O)(=O)c3cccc4c(N(C)C)cccc34)cccc12` [COB295, 5-Dimethylamino-N-(2-[2-{2-(5-(dimethylamino)naphthalene-1-sulfonamido)ethoxy}ethoxy]ethyl)naphthalene-1-sulfonamide]: the pIC50 in the data set on HMEC-GFP cells was 5.30. The water solubility entry in “Water solubility” was “lack of water solubility”.

The term melting point denotes the temperature, or range, at which the solid turns liquid. For the molecule `CN(C)c1cccc2c(S(=O)(=O)NCCCNS(=O)(=O)c3cccc4c(N(C)C)cccc34)cccc12` [Compound 05-06-F11, 1,3-bis [5-(Dimethylamino)naphthalene-1-sulfonamido] diaminopropane], the melting point is 90 °C. This molecule gave a pIC50 in the data set with HMEC-GFP cells of 4.82. For the same molecule, in the data set on 3T3-GFP cells, the pIC50 was 4.40. Besides, in the data set “Water solubility”, the water solubility entry is reported as “lack of water solubility”.

Values taken from publication PMC4467156, “A new chemical inhibitor of angiogenesis and tumorigenesis that targets the VEGF signaling pathway upstream of Ras” (Oncotarget, 2015).
